These results are taken from patent publication US4628062A, “1,4-naphthoquinone derivatives having anti-inflammatory action” (priority 1983, dated 1986).

One assay deals with T1, lipoxygenase (Rattus norvegicus, UniProt P12527).
T1 construct: release of LTB4 from neutrophilic granulocytes (PMN) of the rat; endogenous in cells; host or cells: rat neutrophilic granulocytes (PMN)
T1 sequence (P12527 1-673): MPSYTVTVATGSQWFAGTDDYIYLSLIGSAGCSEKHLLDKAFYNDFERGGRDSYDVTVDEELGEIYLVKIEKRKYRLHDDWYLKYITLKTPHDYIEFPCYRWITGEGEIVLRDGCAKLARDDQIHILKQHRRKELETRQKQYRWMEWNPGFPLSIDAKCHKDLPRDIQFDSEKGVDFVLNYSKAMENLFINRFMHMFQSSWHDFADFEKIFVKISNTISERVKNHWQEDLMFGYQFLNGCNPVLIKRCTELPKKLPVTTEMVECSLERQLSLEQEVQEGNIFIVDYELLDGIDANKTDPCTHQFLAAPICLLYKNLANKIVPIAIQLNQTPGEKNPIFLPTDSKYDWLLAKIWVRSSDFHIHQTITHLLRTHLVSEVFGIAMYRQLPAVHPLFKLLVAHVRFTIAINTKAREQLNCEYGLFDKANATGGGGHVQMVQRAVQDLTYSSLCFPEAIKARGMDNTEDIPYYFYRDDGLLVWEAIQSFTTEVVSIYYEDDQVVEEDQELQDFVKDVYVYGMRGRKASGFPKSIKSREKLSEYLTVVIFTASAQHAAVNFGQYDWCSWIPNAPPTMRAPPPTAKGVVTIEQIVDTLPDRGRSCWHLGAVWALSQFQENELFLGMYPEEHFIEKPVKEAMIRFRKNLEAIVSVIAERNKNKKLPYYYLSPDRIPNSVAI
The assay is described as follows: inhibition of arachidonic acid metabolism via the lipoxygenase route: LTB4 release from PMN of the rat after stimulation with Ca ionophor, reverse phase HPLC. In kind it is cell-based. Conditions: read-out: % inhibition of lipoxygenase at 1 × 10^-5 mol/l.

The test system of assay [1] is oedema induced by carrageenan in the rat paw. As to the kind of experiment: inhibition of carrageenan-induced oedema in the rat paw (Winter et al., modified). In kind it is in vivo. Conditions: po, read-out: % inhibition of carrageenan oedema at 2.5 mg/kg orally.
Another assay concerns PMN. As to the kind of experiment: inhibition of aggregation of PMN stimulated by LTB4 (Cunningham et al.). It is filed as cell-based. The note with it: 1 × 10^-4 mol/l.
The next assay deals with T2, cyclooxygenase (Mus musculus, UniProt P22437).
T2 construct: endogenous in cells
T2 sequence (P22437 27-602): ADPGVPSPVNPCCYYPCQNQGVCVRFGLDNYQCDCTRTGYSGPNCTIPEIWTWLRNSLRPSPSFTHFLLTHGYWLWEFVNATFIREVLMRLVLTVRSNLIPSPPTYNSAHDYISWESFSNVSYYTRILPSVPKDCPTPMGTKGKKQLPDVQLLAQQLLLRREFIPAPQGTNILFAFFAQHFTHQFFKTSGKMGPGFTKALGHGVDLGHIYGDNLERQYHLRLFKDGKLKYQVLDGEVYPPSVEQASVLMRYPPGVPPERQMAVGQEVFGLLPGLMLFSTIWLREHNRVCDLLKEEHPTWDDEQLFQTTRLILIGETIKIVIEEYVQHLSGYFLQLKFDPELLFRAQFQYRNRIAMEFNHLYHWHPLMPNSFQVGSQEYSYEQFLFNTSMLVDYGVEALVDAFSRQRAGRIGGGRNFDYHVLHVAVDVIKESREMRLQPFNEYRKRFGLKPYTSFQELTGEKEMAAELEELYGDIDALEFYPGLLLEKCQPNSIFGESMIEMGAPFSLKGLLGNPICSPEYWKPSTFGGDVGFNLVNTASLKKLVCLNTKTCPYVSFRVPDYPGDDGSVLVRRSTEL
As to the kind of experiment: inhibition of arachidonic acid metabolism via the cyclooxygenase route (Brune et al.). It is filed as biochemical. Conditions: read-out: % inhibition of cyclooxygenase at 1 × 10^-5 mol/l.

The mark [2] stands for this setting: 1 × 10^-5 mol/l, LTB4 release from rat PMN, Ca ionophor.
Where [3] appears, read: rat paw, 2.5 mg/kg orally, λ-carrageenan 0.25% suspension in physiological saline.

Like-named read-outs stand apart in the source and are kept apart here.

Consider `CCOC1=C(NC(C)=O)C(=O)c2ccccc2C1=O` [Compound 14, 2-Acetylamino-3-ethoxy-1,4-naphthoquinone], for which the inhibition at 10 µM on lipoxygenase (setting [2]) turned out to be 100%. Moreover, the inhibition in vivo at 2.5 mg/kg in assay [1] (setting [3]) came to 49%.

As for `CC1=C(SCC(=O)O)C(=O)c2ccccc2C1=O` [Compound 8], the inhibition at 10 µM came to 100% on lipoxygenase (setting [2]) and 72% at cyclooxygenase. The same compound gave an inhibition at 100 µM in the assay on PMN of 34%. Moreover, in assay [1] (setting [3]), the inhibition in vivo at 2.5 mg/kg turned out to be 41%.

`CNC(=O)CSC1=C(C)C(=O)c2ccccc2C1=O` [Compound 9]: the inhibition at 10 µM on lipoxygenase (setting [2]) was 100%; on cyclooxygenase, 89%. Moreover, the inhibition at 100 µM in the assay on PMN was 100%. Moreover, in assay [1] (setting [3]), the inhibition in vivo at 2.5 mg/kg is 25%.

On to `NC1=CC(=O)c2ccccc2C1=O` [Compound 5], for which the inhibition at 10 µM amounted to 100% on lipoxygenase and 55% at cyclooxygenase. For the same compound, the inhibition in vivo at 2.5 mg/kg in assay [1] (Rattus norvegicus) was 48%.

In the case of `CC(=O)NC1=CC(=O)c2ccccc2C1=O` [Compound 7], the inhibition at 10 µM came out at 100% at lipoxygenase (setting [2]) and 65% on cyclooxygenase. Moreover, the inhibition at 100 µM in the assay on PMN was found to be 49%. For the same compound, the inhibition in vivo at 2.5 mg/kg in assay [1] (setting [3]) stood at 32%.

For `C=CCNC1=CC(=O)c2cc(S(N)(=O)=O)ccc2C1=O` [Compound 12, 2-Allylamino-6-sulphamoyl-1,4-naphthoquinone], the results for the inhibition at 10 µM at lipoxygenase (setting [2]) and at cyclooxygenase were 100% and 38%, respectively. This compound also returned an inhibition at 100 µM in the assay with PMN of 72%. The inhibition in vivo at 2.5 mg/kg in assay [1] (setting [3]) is 39%.

In the case of `NC1=CC(=O)c2cc(S(N)(=O)=O)ccc2C1=O` [Compound 6], the figures for the inhibition at 10 µM at lipoxygenase (setting [2]) and on cyclooxygenase were 100% and 65%, respectively. Also, the inhibition at 100 µM in the assay on PMN was determined as 77%. Also, the inhibition in vivo at 2.5 mg/kg in assay [1] (setting [3]) was found to be 39%.

Take `O=C(CSC1=C(SCC(=O)NCCO)C(=O)c2ccccc2C1=O)NCCO` [Compound 11]: the inhibition at 10 µM at lipoxygenase (setting [2]) was found to be 80%; at cyclooxygenase it was 50%. For the same compound, the inhibition at 100 µM in the assay on PMN was 36%. For the same compound, the inhibition in vivo at 2.5 mg/kg in assay [1] (setting [3]) stood at 45%.

As to `CC1=C(SCC(=O)NC(C)C)C(=O)c2ccccc2C1=O` [Compound 10], the values for the inhibition at 10 µM at lipoxygenase (setting [2]) and on cyclooxygenase were 100% and 89%, respectively. In the assay on PMN, the inhibition at 100 µM is 95%. In addition, the inhibition in vivo at 2.5 mg/kg in assay [1] (setting [3]) was 45%.

For `CCC(=O)NC1=C(OCCOC)C(=O)c2ccccc2C1=O` [Compound 13, 2-Propionylamino-3-(2-methoxyethoxy)-1,4-naphthoquinone], on lipoxygenase (setting [2]), the inhibition at 10 µM is 100%. Further, in assay [1] (setting [3]), the inhibition in vivo at 2.5 mg/kg came to 48%.

Regarding `COC1=C(OC)C(=O)c2ccccc2C1=O` [Compound 4], the inhibition at 10 µM at lipoxygenase (setting [2]) came to 100%; on cyclooxygenase it was 37%. Besides, in the assay on PMN, the inhibition at 100 µM was determined as 79%. Besides, the inhibition in vivo at 2.5 mg/kg in assay [1] (setting [3]) is 36%.

With `O=C1C=C(O)C(=O)c2ccccc21` [Compound 1], the inhibition at 10 µM on lipoxygenase stood at 70%; on cyclooxygenase, 31%. In addition, the inhibition in vivo at 2.5 mg/kg in assay [1] (Rattus norvegicus) is 34%.

As to `COC1=CC(=O)c2ccccc2C1=O` [Compound 2], the inhibition at 10 µM on lipoxygenase (setting [2]) is 98%; at cyclooxygenase, 78%. Besides, the inhibition at 100 µM with PMN stood at 76%. In addition, the inhibition in vivo at 2.5 mg/kg in assay [1] (setting [3]) turned out to be 29%.

In the case of `COCCOC1=CC(=O)c2ccccc2C1=O` [Compound 3], the inhibition at 10 µM at lipoxygenase (setting [2]) was 100%; on cyclooxygenase it was 45%. Also, the inhibition in vivo at 2.5 mg/kg in assay [1] (setting [3]) is 38%.
